Results on one molecule are retold here after patent publication US20150160195A1, “HUMAN LIVER TUMOR CELL LINE AND METHOD OF AGENT SCREENING” (Industrial Technology Research Institute, priority 2013, published 2015).

The structures appear in SMILES notation. pIC50: −log10 of the molar value.

The subject of test [1] is human liver tumor cell line ITRI-H16. Briefly: Cell viability of ITRI-H16 cells after 48-hour treatment, Alarmablue measurement assay. The settings on record: read-out: half maximal inhibitory concentration (IC50) in the ITRI-H16 cell line.
Another test deals with liver cancer. The settings on record: phase III of human clinical trials; cited from earlier work.

`CNC(=O)c1cc(Oc2ccc(NC(=O)Nc3ccc(Cl)c(C(F)(F)F)c3)cc2)ccn1` [Sorafenib]: the pIC50 in test [1] was approximately 4.85. The “extension of patient survival time” value in the test on liver cancer was “three-month”.
